From publication PMC2833169, “Anti-malarial activity of a non-piperidine library of next-generation quinoline methanols” (Malaria Journal, 2010)
Converted amounts (≈) assume the structure as drawn. Read-outs that look alike come from different tables or passages of the source.

Columns and labels:
[1] = test system: P. falciparum strain TM90C2A; assay: labeled hypoxanthine susceptibility assay, P. falciparum TM90C2A; format: cell-based, Plasmodium falciparum; conditions: Plasmodium falciparum, TM90C2A
Description: (§1) The in vitro activities of quinoline methanols against P. falciparum strains W2, D6, TM91C235, and TM90C2A were evaluated using the traditional labeled hypoxanthine assay of Desjardins et al as modified by Milhous et al. These four P. falciparum strains were selected since they have various levels of resistance to conventional anti-malarials.

P. falciparum strain W2 = assay: labeled hypoxanthine susceptibility assay, P. falciparum W2; format: cell-based, Plasmodium falciparum; conditions: Plasmodium falciparum, W2, read-out: IC90 Pf W2
Description: as §1

A2A receptor = target: T1, A2A receptor (Homo sapiens, UniProt P29274); assay: inhibition of the A2A receptor at 200 nM; format: binding; conditions: read-out: % A2A inhibition at 200 nM
T1 construct: Caliper Biosciences (contract screen)
Description: (§2) General cytotoxicity was assessed by first determining LC50 's against a rodent macrophage (RAW) cell line using the 3-(4,5-dimethylthiazole-2-yl)-2,5-diphenyltetrazolium bromide (MTT) assay as described in one of our earlier studies. This screen was conducted to identify compounds that may require de-selection due to generalized toxicity. […] In vitro neurocytotoxicity was assessed by determining LC50s against primary mouse neurons using the MTT assay as described previously. Inhibition of the A2A and A1 receptors was determined at 200 nM in duplicate by Caliper Biosciences (Hanover, Maryland).

in vitro [2] = conditions: mouse
Description: as §2

[3] = metabolic stability in mouse liver microsomes; format: in vitro ADME
Description: Interesting compounds were also submitted for drug-drug interaction and metabolic stability assays. Low IC50s against specific cytochrome P450 isoforms may indicate the potential for a harmful drug interaction to occur in vivo with substrates of that isoform. A lack of metabolic stability in vitro may indicate potential metabolic instability in vivo, and, therefore, a shorter half-life. Drug interaction potential was evaluated in vitro using BD Gentest (Franklin Lakes, NJ) CYP450 inhibition kits as recommended by the manufacturer. Metabolic stability assessments were conducted using in vitro liver microsomes. […] The reaction is started with the addition of 1 U/mL glucose-6-phosphate dehydrogenase G6PD. The mixture is incubated on a shaking platform at 37°C, and aliquots are taken and quenched with the addition of an equal volume of cold acetonitrile at 0, 10, 20, 30, and 60 min. Samples are centrifuged at 3700 rpm for […] at 20°C to remove debris. Sample quantification is carried out by LC/MS, and metabolic half-life is calculated by log plots of the total ion chromatograph area remaining.

A1 receptor = target: T2, A1 receptor (Homo sapiens, UniProt P30542); assay: inhibition of the A1 receptor at 200 nM; format: binding; conditions: duplicate
T2 construct: Caliper Biosciences (contract screen)
T2 sequence (P30542 1-326): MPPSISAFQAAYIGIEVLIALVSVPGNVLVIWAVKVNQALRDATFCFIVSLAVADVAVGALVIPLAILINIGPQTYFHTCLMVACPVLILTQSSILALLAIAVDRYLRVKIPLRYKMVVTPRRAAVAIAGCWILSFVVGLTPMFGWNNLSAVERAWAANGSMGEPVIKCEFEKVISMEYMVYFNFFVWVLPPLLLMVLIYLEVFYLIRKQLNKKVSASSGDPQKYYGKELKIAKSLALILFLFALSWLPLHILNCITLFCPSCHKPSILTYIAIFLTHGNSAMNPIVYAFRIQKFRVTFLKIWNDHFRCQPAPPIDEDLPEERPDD
Description: as §2

in vitro [4] = conditions: mouse; remark: listed apart in the source
Description: as §2

P. falciparum strain D6 = assay: labeled hypoxanthine susceptibility assay, P. falciparum D6; format: cell-based, Plasmodium falciparum; conditions: Plasmodium falciparum, D6, read-out: IC90 Pf D6, P. falciparum D6; mefloquine: historical mean +/- SD (n)
Description: as §1

[5] = test system: MDR1-transfected MDCK cell monolayers; assay: apparent permeability across MDR1-MDCK cell monolayers
Description: (§3) For this reason, the apparent permeability of selected compounds across MDR1-transfected MDCK cell monolayers was determined. This assay is an in vitro surrogate of the blood-brain barrier.
(§4) Permeability was determined by Absorption Systems (Exton, PA). MDR1-MDCK cell monolayers were grown to confluence on collagen-coated, microporous, polycarbonate membranes in 12-well Costar Transwell plates. […] The permeability assay buffer was Hanks Balanced Salt Solution containing 10 mM HEPES and 15 mM glucose at a pH of 7.4. A known p-glycoprotein inhibitor cyclosporin A (CSA) was also added to the assay buffer at 10 μM. Bovine serum albumin (1%) was added to the receiver well. The dosing solution concentrations of the test compounds were 5.0 μM in the assay buffer. All cell monolayers were first pre-incubated for 30 minutes with assay buffer. After 30 minutes, the buffer was removed, replaced with fresh buffer, and time was recorded as 0. […] Cell monolayers were dosed on the apical side (A-to-B) or basolateral side (B-to-A) and incubated at 37°C with 5% CO2 in a humidified incubator. After 2 hours, aliquots were taken from the receiver chambers. Samples were taken from the donor chamber at 0 and 2 hours. Each determination was performed in duplicate. The lucifer yellow flux was also measured for each monolayer to ensure no damage was inflicted to the cell monolayers during the flux period. All samples were assayed by LC/MS/MS using electrospray ionization.
(§5) Apparent permeability in the apical (A-B direction), PappA-B, and percent recovery are reported. Apparent permeability is a measure of the rate of transport across the cell monolayer. Percent recovery refers to the amount of compound recoverable at the end of the assay. Low recovery may indicate non-specific binding to assay plates, instability or accumulation in the cell pellet.
(§6) The apparent permeability, Papp, and percent recovery were calculated as follows:
(§7) Papp = (dCr/dt) × Vr/(A × C0) (1)
(§8) Percent Recovery = 100 × ((Vr × Cr^final) + (Vd × Cd^final))/(Vd × […]) (2)

[6] = test system: P. falciparum strain TM91C235; assay: labeled hypoxanthine susceptibility assay, P. falciparum TM91C235; format: cell-based, Plasmodium falciparum; conditions: Plasmodium falciparum, read-out: IC90 Pf C235
Description: as §1

in vitro [7] = conditions: dog, MDCK-MDR1, pH 7.4
Description: as §3, §4, §5, §6, §7, §8

T1 sequence (P29274 whole entry): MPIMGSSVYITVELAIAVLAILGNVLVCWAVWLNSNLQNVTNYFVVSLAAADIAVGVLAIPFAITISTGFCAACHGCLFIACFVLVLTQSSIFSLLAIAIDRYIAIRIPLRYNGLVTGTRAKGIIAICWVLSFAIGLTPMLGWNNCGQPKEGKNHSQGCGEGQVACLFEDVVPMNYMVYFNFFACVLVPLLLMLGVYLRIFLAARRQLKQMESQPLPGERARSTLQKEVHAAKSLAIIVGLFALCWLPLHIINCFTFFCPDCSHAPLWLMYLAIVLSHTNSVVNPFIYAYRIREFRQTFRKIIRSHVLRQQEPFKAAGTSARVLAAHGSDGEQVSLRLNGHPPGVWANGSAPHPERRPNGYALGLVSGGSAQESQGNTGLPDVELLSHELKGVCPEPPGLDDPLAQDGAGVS

OC(c1cc(C(F)(F)F)nc2c(C(F)(F)F)cccc12)C1CCCCN1 (stereo not drawn) [Mefloquine, mefloquine, reference compound]
IC90 ([1]; read-out: IC90 Pf C2A): 0.074 ± 0.032 mg/L | IC90 ([1]; read-out: IC90 PfC2A): 0.171 µM | IC90 (P. falciparum strain W2): 0.0062 ± 0.0028 mg/L (≈ 0.0164 µM) | inhibition at 0.2 µM (A2A receptor): 62% | CC50 (in vitro [2]): 41 µM | HL in Microsomes ([3]; 1 μM, pH 7.4): > 60 min | half-life at 1 μM ([3]; mouse, microsomes, pH 7.4): > 1 h | inhibition at 0.2 µM (A1 receptor): 4% | CC50 (in vitro [4]): 3.72 ± 1.51 mg/L (≈ 9.84 µM) | IC90 (P. falciparum strain D6): 0.017 ± 0.011 mg/L (≈ 0.0449 µM) | PappA-B MDCK-MDR1 ([5]; apical (A-B) direction, 5.0 μM, 10 μM cyclosporin A, 2 h, mefloquine average of n = 3): 9.4 10^-6 cm/s | % recovery (MDCK-MDR1 permeability assay) ([5]; compound recoverable at end of assay): < 40% | IC90 [6]: 0.052 ± 0.03 mg/L (≈ 0.137 µM)

OC(CNCC12CCC(C1)NC2)c1cc(C(F)(F)F)nc2c(C(F)(F)F)cccc12 (stereo not drawn) [WR319535/581]
IC90 ([1]; read-out: IC90 Pf C2A): 0.251 mg/L | IC90 (P. falciparum strain W2): 0.275 mg/L (≈ 0.635 µM) | HL in Microsomes ([3]; Figure 3, species of microsomes not given): > 60 min | CC50 (in vitro [4]): 4.11 mg/L (≈ 9.48 µM) | IC90 (P. falciparum strain D6): 0.075 mg/L (≈ 0.173 µM) | Papp A→B at 2 h, 5 μM (in vitro [7]): 20 nm/s | % recovery (MDCK-MDR1 permeability assay) ([5]; dog, MDCK-MDR1, 2 h, 5 μM, pH 7.4): 52% | IC90 [6]: 0.26 mg/L (≈ 0.6 µM)
